Experimental findings from PMC8474115 (Journal of Medicinal Chemistry, 2021) are described below.

One data set concerns the target T1, 5-HT3R (Cavia porcellus, UniProt O70212).
T1 sequence (O70212 20-490): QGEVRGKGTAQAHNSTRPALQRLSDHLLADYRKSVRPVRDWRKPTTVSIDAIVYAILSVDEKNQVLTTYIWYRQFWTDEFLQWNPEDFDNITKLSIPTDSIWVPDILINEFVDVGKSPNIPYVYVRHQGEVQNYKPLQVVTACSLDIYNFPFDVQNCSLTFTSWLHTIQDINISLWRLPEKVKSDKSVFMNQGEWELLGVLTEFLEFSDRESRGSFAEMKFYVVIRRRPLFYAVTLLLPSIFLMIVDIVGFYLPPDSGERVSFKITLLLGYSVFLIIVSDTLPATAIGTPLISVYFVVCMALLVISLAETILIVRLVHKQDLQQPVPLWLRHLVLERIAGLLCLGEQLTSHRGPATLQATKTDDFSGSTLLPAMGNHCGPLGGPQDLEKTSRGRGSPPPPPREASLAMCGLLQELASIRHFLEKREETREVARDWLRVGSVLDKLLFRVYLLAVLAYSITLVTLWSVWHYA
As to conditions: for antagonist effect: percent inhibition of response to 5-HT 3 μM (contraction of guinea pig ileum); for functional classification at 5-HT3R: guinea pig ileum contraction.

Several values for one entry are separate records, joined by “and”; a condition that tells them apart may be missing. Identical values can stand only once. Counter-ions that a name gives are not always drawn. Like-named read-outs stand apart in the source and are kept apart here.

Description for 5-HT3R: Isolated guinea pig ileum was employed to test the affinity and the intrinsic activity of the investigated compounds for 5-HT3 receptors. […] A 15 cm ileum segment was excised from the small intestine of male guinea pigs and immersed into a Krebs solution (NaCl 120 mM, KCl 5.6 mM, MgCl2 2.2 mM, CaCl2 2.4 mM, NaHCO3 19 mM, glucose 10 mM). After the first 5 cm length closest to the ileocaecal junction had been discarded 2 cm-long fragments were cut. Each segment of the ileum was placed in a 20 mL chamber of tissue organ bath system (Tissue Organ Bath System – 750 TOBS, DMT, Denmark) filled with the Krebs solution at 37° C, pH 7.4, with constant oxygenation (O2/CO2, 19:1), fixed by the lower end to a rod and by the upper end to the force–displacement transducer. The preparation was allowed to stabilize in organ baths for 60 min under a resting tension of 0.5 g, washing every 15 min with fresh Krebs solution. After the equilibration period, a cumulative concentration–response curve was constructed in each tissue for 5-HT (10 nM – 10 μM) by the method of van Rossum.[64] […] Selected compounds were tested using an additional method. After establishment of the first 5-HT concentration–response curve, washing out of the tissue, and stabilization period, the same tissues were subsequently incubated with one of the concentrations of the tested compound for 15 min and the next cumulative concentration curve to 5-HT was obtained. Only one concentration of a studied compound was tested in each piece of tissue.

On to `O=S(=O)(c1ccccc1)n1ccc2c(N3CCNCC3)nc3ccccc3c21` [Compound 7, 1-(Phenylsulfonyl)-4-(piperazin-1-yl)-1H-pyrrolo[3,2-c]quinoline dihydrochloride], for which the antagonist effect at 5-HT3R (100 nM) amounted to 26%; at 5-HT3R (300 nM), 60%. The “functional classification at 5-HT3R” value on 5-HT3R is “antagonistic properties”. By melting point is commonly meant the temperature, or range, at which the solid turns liquid. Molecule `CNC1CCN(c2nc3ccccc3c3c2ccn3S(=O)(=O)c2ccccc2)C1` (centres unmarked) (as salt: hydrochloride) [Compound 10, N-Methyl-1-(1-(phenylsulfonyl)-1H-pyrrolo[3,2-c]quinolin-4-yl)pyrrolidin-3-amine dihydrochloride] returned a melting point of 256 to 258 °C.

Molecule `O=S(=O)(c1cc(F)ccc1F)n1ccc2c(N3CCNCC3)nc3ccccc3c21` (as salt: hydrochloride) [Compound 27, 1-[(2,5-Difluorophenyl)sulfonyl]-4-(piperazin-1-yl)-1H-pyrrolo[3,2-c]quinoline dihydrochloride] gave a melting point of 204 to 206 °C. As for `O=S(=O)(c1ccccc1)n1ccc2c(N3CCCNCC3)nc3ccccc3c21` [Compound 11, 4-(1,4-Diazepan-1-yl)-1-(phenylsulfonyl)-1H-pyrrolo[3,2-c]quinoline dihydrochloride], the antagonist effect on 5-HT3R (300 nM) is 53% and 53 (300 nM) %. As to `COc1cccc(S(=O)(=O)n2ccc3c(N4CCNCC4)nc4ccccc4c32)c1` [Compound 21, 1-[(3-Methoxyphenyl)sulfonyl]-4-(piperazin-1-yl)-1H-pyrrolo[3,2-c]quinoline dihydrochloride], the antagonist effect on 5-HT3R (100 nM) was found to be 28%; at 5-HT3R (300 nM), 73%. In the case of `CN1CCN(c2nc3ccccc3c3c2ccn3S(=O)(=O)c2cccc(F)c2)CC1` [Compound 12, 1-[(3-Fluorophenyl)sulfonyl]-4-(4-methylpiperazin-1-yl)-1H-pyrrolo[3,2-c]quinoline hydrochloride], the antagonist effect is listed as 30% on 5-HT3R (30 nM) and 74% on 5-HT3R (100 nM). `O=S(=O)(c1ccccc1)n1ccc2c(NC3CNC3)nc3ccccc3c21` (as salt: hydrochloride) [Compound 9, N-(Azetidin-3-yl)-1-(phenylsulfonyl)-1H-pyrrolo[3,2-c]quinolin-4-amine dihydrochloride] showed a melting point of 243 to 246 °C.

Molecule `O=S(=O)(c1ccccc1)n1ccc2c(N[C@H]3CCNC3)nc3ccccc3c21` (as salt: hydrochloride) [Compound 8, (S)-1-(Phenylsulfonyl)-N-(pyrrolidin-3-yl)-1H-pyrrolo[3,2-c]quinolin-4-amine dihydrochloride] had a melting point of 220 to 222 °C.

Regarding `O=S(=O)(c1ccc(F)cc1)n1ccc2c(N3CCNCC3)nc3ccccc3c21` (as salt: hydrochloride) [Compound 22, 1-[(4-Fluorophenyl)sulfonyl]-4-(piperazin-1-yl)-1H-pyrrolo[3,2-c]quinoline dihydrochloride], the melting point lay in the range of 172 to 174 °C. In the case of `O=S(=O)(c1cc(F)ccc1F)n1ccc2c(N3CCNCC3)nc3ccccc3c21` [Compound 27, 1-[(2,5-Difluorophenyl)sulfonyl]-4-(piperazin-1-yl)-1H-pyrrolo[3,2-c]quinoline dihydrochloride], at 5-HT3R (300 nM), the antagonist effect is listed as 32 (300 nM) %.

`O=S(=O)(c1cccc(C(F)(F)F)c1)n1ccc2c(N3CCNCC3)nc3ccccc3c21` (as salt: hydrochloride) [Compound 19, 1-{[3-(Trifluoromethyl)phenyl]sulfonyl}-4-(piperazin-1-yl)-1H-pyrrolo[3,2-c]quinoline dihydrochloride] gave a melting point of 182 to 185 °C. `O=S(=O)(c1ccc(Cl)c(Cl)c1)n1ccc2c(N3CCNCC3)nc3ccccc3c21` (as salt: hydrochloride): the melting point fell in the range of 203 to 205 °C. On to `O=S(=O)(c1ccccc1)n1ccc2c(NC3CNC3)nc3ccccc3c21` [Compound 9, N-(Azetidin-3-yl)-1-(phenylsulfonyl)-1H-pyrrolo[3,2-c]quinolin-4-amine dihydrochloride], for which the antagonist effect on 5-HT3R (300 nM) was 35% and 35 (300 nM) %.

`O=S(=O)(c1ccccc1)n1ccc2c(N3CCCNCC3)nc3ccccc3c21` (as salt: hydrochloride) [Compound 11, 4-(1,4-Diazepan-1-yl)-1-(phenylsulfonyl)-1H-pyrrolo[3,2-c]quinoline dihydrochloride] yielded a melting point of 247 to 248 °C. As to `CN1CCN(c2nc3ccccc3c3c2ccn3S(=O)(=O)c2cccc(Cl)c2)CC1` [Compound 13, 1-[(3-Chlorophenyl)sulfonyl]-4-(4-methylpiperazin-1-yl)-1H-pyrrolo[3,2-c]quinoline hydrochloride], the antagonist effect at 5-HT3R (100 nM) stood at 10%; on 5-HT3R (300 nM), 44%. Turning to `CN1CCN(c2nc3ccccc3c3c2ccn3S(=O)(=O)c2ccccc2)CC1` (as salt: hydrochloride) [Compound 6, 1-(Phenylsulfonyl)-4-(4-methylpiperazin-1-yl)-1H-pyrrolo[3,2-c]quinoline hydrochloride], the melting point lay within 127 to 129 °C.

As to `O=S(=O)(c1ccc(F)c(F)c1)n1ccc2c(N3CCNCC3)nc3ccccc3c21` (as salt: hydrochloride), the melting point lay within 180 to 182 °C.

Consider `O=S(=O)(c1ccccc1)n1ccc2c(N[C@H]3CCNC3)nc3ccccc3c21` [Compound 8, (S)-1-(Phenylsulfonyl)-N-(pyrrolidin-3-yl)-1H-pyrrolo[3,2-c]quinolin-4-amine dihydrochloride], for which the antagonist effect on 5-HT3R (300 nM) was 32% and 32 (300 nM) %. Turning to `CN1CCN(c2nc3ccccc3c3c2ccn3S(=O)(=O)c2ccccc2)CC1` [Compound 6, 1-(Phenylsulfonyl)-4-(4-methylpiperazin-1-yl)-1H-pyrrolo[3,2-c]quinoline hydrochloride], the results for the antagonist effect on 5-HT3R (100 nM) and at 5-HT3R (300 nM) were 28% and 48%, respectively. Besides, the “functional classification at 5-HT3R” value on 5-HT3R was “antagonistic properties”. As for `O=S(=O)(c1ccc(C(F)(F)F)cc1)n1ccc2c(N3CCNCC3)nc3ccccc3c21` (as salt: hydrochloride) [Compound 23, 1-{[4-(Trifluoromethyl)phenyl]sulfonyl}-4-(piperazin-1-yl)-1H-pyrrolo[3,2-c]quinoline dihydrochloride], the melting point was in the range of 165 to 167 °C. `CN1CCN(c2nc3ccccc3c3c2ccn3S(=O)(=O)c2cccc(F)c2)CC1` (as salt: hydrochloride) [Compound 12, 1-[(3-Fluorophenyl)sulfonyl]-4-(4-methylpiperazin-1-yl)-1H-pyrrolo[3,2-c]quinoline hydrochloride] showed a melting point of 176 to 177 °C. As to `CNC1CCN(c2nc3ccccc3c3c2ccn3S(=O)(=O)c2ccccc2)C1` (centres unmarked) [Compound 10, N-Methyl-1-(1-(phenylsulfonyl)-1H-pyrrolo[3,2-c]quinolin-4-yl)pyrrolidin-3-amine dihydrochloride], the antagonist effect on 5-HT3R (300 nM) is 48% and 48 (300 nM) %.

As for `O=S(=O)(c1cccc(C(F)(F)F)c1)n1ccc2c(N3CCNCC3)nc3ccccc3c21` [Compound 19, 1-{[3-(Trifluoromethyl)phenyl]sulfonyl}-4-(piperazin-1-yl)-1H-pyrrolo[3,2-c]quinoline dihydrochloride], the antagonist effect on 5-HT3R (100 nM) came to 21%; on 5-HT3R (300 nM), 37%. Besides, the “pD2′” value at 5-HT3R (antagonist potency, guinea pig ileum) is 6.09.
